The results in this text go back to PubChem BioAssay (NCI).

Among the test systems are PC-3 prostate; SNB-75 CNS; U251 CNS; SNB-19 CNS; SN12C renal; HOP-92 NSCLC; NCI/ADR-RES ovarian; UACC-62 melanoma; CAKI-1 renal; K-562 leukemia; A498 renal; RXF 393 renal; MOLT-4 leukemia; HCT-15 colon; DU-145 prostate; 786-0 renal; IGROV1 ovarian; SK-MEL-2 melanoma.
Holding throughout (assay): NCI anticancer screen, dose series, 48 h

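In this assay, cells in 96-well plates receive the compound at five concentrations for 48 hours. Endpoints are linearly interpolated between the surrounding concentrations. Here, GI50 denotes the concentration required for 50% inhibition of growth. The concentration for full growth arrest is given as TGI.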

Take `CC(=O)Oc1ccc(-c2nnc(-c3ccc(OC(C)=O)cc3)nn2)cc1`: the TGI in the assay with PC-3 prostate, in the assay with SNB-75 CNS, with U251 CNS, in the assay on SNB-19 CNS, in the assay on SN12C renal and in the assay on HOP-92 NSCLC was above 100 µM each time. In addition, the TGI in the assay on NCI/ADR-RES ovarian, in the assay on UACC-62 melanoma, with CAKI-1 renal, with K-562 leukemia, in the assay with A498 renal and in the assay on RXF 393 renal was above 100 µM in each case. The TGI in the assay on MOLT-4 leukemia, with HCT-15 colon, with DU-145 prostate, with 786-0 renal, in the assay with IGROV1 ovarian and with SK-MEL-2 melanoma was above 100 µM in each case.

For `N#CC1=C(S)N(C2OC(CO)C(O)C(O)C2O)C(c2ccccc2)=CC1c1ccco1` (configuration not stated), the TGI in the assay on PC-3 prostate is above 100 µM; in the assay on SNB-75 CNS, 45.1 µM; with U251 CNS it was 53.5 µM; with SNB-19 CNS, above 100 µM; in the assay with SN12C renal it was above 100 µM; with HOP-92 NSCLC it was above 100 µM. In addition, the TGI is above 100 µM in the assay on NCI/ADR-RES ovarian; 42.1 µM in the assay on UACC-62 melanoma; above 100 µM with CAKI-1 renal; above 100 µM with K-562 leukemia; above 100 µM in the assay on A498 renal; above 100 µM in the assay on RXF 393 renal. Besides, the TGI with MOLT-4 leukemia, in the assay on HCT-15 colon, with DU-145 prostate, with 786-0 renal, with IGROV1 ovarian and in the assay with SK-MEL-2 melanoma was above 100 µM throughout.

As to `O=C(/C=C/c1ccccc1)CCN1CCCCC1`, the TGI with PC-3 prostate was above 100 µM; with SNB-75 CNS, above 100 µM; with U251 CNS, 65.6 µM; in the assay with SNB-19 CNS, above 100 µM; with SN12C renal, 48.8 µM; in the assay with HOP-92 NSCLC it was above 100 µM. Besides, the TGI in the assay on NCI/ADR-RES ovarian is above 100 µM; in the assay with UACC-62 melanoma, above 100 µM; with CAKI-1 renal it was above 100 µM; in the assay with K-562 leukemia it was above 100 µM; in the assay on A498 renal, above 100 µM; in the assay with RXF 393 renal, 75 µM. Also, the TGI with MOLT-4 leukemia is 63.1 µM; with HCT-15 colon, above 100 µM; with DU-145 prostate, above 100 µM; in the assay on 786-0 renal, 44.4 µM; in the assay on IGROV1 ovarian, above 100 µM; in the assay on SK-MEL-2 melanoma, above 100 µM.

For `O=C1C(Cl)=CC2(C=C1Cl)CCN=c1c(O)c3c(c(O)c12)=NC=N3`, the TGI in the assay with PC-3 prostate is above 100 µM; in the assay with SNB-75 CNS, above 100 µM; in the assay on U251 CNS, 71.9 µM; in the assay on SNB-19 CNS, above 100 µM; in the assay on SN12C renal, above 100 µM; in the assay with HOP-92 NSCLC, above 100 µM. Also, the TGI is above 100 µM in the assay on NCI/ADR-RES ovarian; 34.7 µM with UACC-62 melanoma; above 100 µM in the assay with CAKI-1 renal; above 100 µM in the assay on K-562 leukemia; above 100 µM in the assay on A498 renal; 70.7 µM with RXF 393 renal. The TGI is above 100 µM in the assay on MOLT-4 leukemia; above 100 µM in the assay on HCT-15 colon; above 100 µM with DU-145 prostate; above 100 µM with 786-0 renal; above 100 µM in the assay on IGROV1 ovarian; 63.1 µM in the assay on SK-MEL-2 melanoma.

For the compound `N/C(=N\N=C\c1nc2ccccc2o1)c1cnccn1`, the TGI in the assay on PC-3 prostate is above 100 µM; with SNB-75 CNS it was 42.8 µM; in the assay on U251 CNS, above 100 µM; in the assay with SNB-19 CNS it was above 100 µM; in the assay with SN12C renal, above 100 µM; in the assay with HOP-92 NSCLC, above 100 µM. Moreover, the TGI in the assay with NCI/ADR-RES ovarian, in the assay on UACC-62 melanoma, with CAKI-1 renal, in the assay on K-562 leukemia, in the assay on A498 renal and in the assay with RXF 393 renal was above 100 µM in each case. The TGI in the assay on MOLT-4 leukemia, with HCT-15 colon, in the assay with DU-145 prostate, in the assay with 786-0 renal, in the assay on IGROV1 ovarian and with SK-MEL-2 melanoma was above 100 µM in each case.

For the compound `C(=NC12CC3CC(CC(C3)C1)C2)C1CCCCC1`, the TGI in the assay with PC-3 prostate, in the assay with SNB-75 CNS, in the assay on U251 CNS, in the assay on SNB-19 CNS, in the assay with SN12C renal and with HOP-92 NSCLC was above 100 µM each time. Besides, the TGI in the assay with NCI/ADR-RES ovarian, in the assay with UACC-62 melanoma, with CAKI-1 renal, in the assay with K-562 leukemia, in the assay on A498 renal and in the assay with RXF 393 renal was above 100 µM throughout. Moreover, the TGI in the assay with MOLT-4 leukemia, in the assay on HCT-15 colon, with DU-145 prostate, with 786-0 renal, in the assay on IGROV1 ovarian and with SK-MEL-2 melanoma was above 100 µM in each case.

Take `CO/C(N)=C(\C#N)N=Cc1ccsc1`: the TGI in the assay on PC-3 prostate, in the assay on SNB-75 CNS, in the assay on U251 CNS, with SNB-19 CNS, in the assay on SN12C renal and with HOP-92 NSCLC was above 100 µM each time. Besides, the TGI in the assay with NCI/ADR-RES ovarian, in the assay with UACC-62 melanoma, in the assay on CAKI-1 renal, with K-562 leukemia, in the assay with A498 renal and with RXF 393 renal was above 100 µM in each case. In addition, the TGI in the assay with MOLT-4 leukemia, in the assay on HCT-15 colon, in the assay with DU-145 prostate, in the assay with 786-0 renal, in the assay on IGROV1 ovarian and with SK-MEL-2 melanoma was above 100 µM in each case.

Take `CCOC(=O)c1nc2ccc(C(F)(F)F)cc2nc1Oc1ccc(OC)cc1`: the TGI with PC-3 prostate, in the assay with SNB-75 CNS, in the assay with U251 CNS, in the assay on SNB-19 CNS, in the assay with SN12C renal and with HOP-92 NSCLC was above 100 µM throughout. The TGI in the assay on NCI/ADR-RES ovarian, with UACC-62 melanoma, in the assay on CAKI-1 renal, with K-562 leukemia, in the assay with A498 renal and in the assay on RXF 393 renal was above 100 µM throughout. Besides, the TGI in the assay with MOLT-4 leukemia, in the assay on HCT-15 colon, in the assay with DU-145 prostate, in the assay on 786-0 renal, in the assay with IGROV1 ovarian and in the assay with SK-MEL-2 melanoma was above 100 µM throughout.

For `O=C(OC1OC2COC(=O)c3cc(O)c(O)c(O)c3-c3c(cc(O)c(O)c3O)C(=O)OC3C2OC(=O)[C@@]24CC(=O)[C@@](O)(OC25C(=O)O[C@H]2[C@@H](O)CO[C@@]25O)C2(O)Oc5c(O)c(O)cc(c5C24)C(=O)OC13)c1cc(O)c(O)c(O)c1` (some centres not stated), the TGI in the assay on PC-3 prostate, in the assay on SNB-75 CNS, in the assay with U251 CNS, in the assay with SNB-19 CNS, in the assay with SN12C renal and in the assay on HOP-92 NSCLC was above 100 µM in each case. In addition, the TGI was above 100 µM in the assay with NCI/ADR-RES ovarian; above 100 µM in the assay with UACC-62 melanoma; 32.1 µM in the assay with CAKI-1 renal; above 100 µM in the assay with K-562 leukemia; above 100 µM in the assay with A498 renal; above 100 µM in the assay on RXF 393 renal. For the same compound, the TGI in the assay on MOLT-4 leukemia, with HCT-15 colon, in the assay with DU-145 prostate, with 786-0 renal, in the assay on IGROV1 ovarian and in the assay on SK-MEL-2 melanoma was above 100 µM each time.

Take `CCc1nc(N)nc(N)c1-c1ccc(N2CCOCC2)c(N=[N+]=[N-])c1`: the TGI in the assay with PC-3 prostate is above 100 µM; with SNB-75 CNS, above 100 µM; with U251 CNS, above 100 µM; with SNB-19 CNS it was above 78.4 µM; with SN12C renal, above 100 µM; in the assay on HOP-92 NSCLC it was above 100 µM. Further, the TGI was above 100 µM in the assay with NCI/ADR-RES ovarian; above 100 µM with UACC-62 melanoma; above 100 µM with CAKI-1 renal; above 90.6 µM in the assay on K-562 leukemia; above 100 µM with A498 renal; above 100 µM in the assay on RXF 393 renal. Also, the TGI in the assay on MOLT-4 leukemia, in the assay with HCT-15 colon, in the assay on DU-145 prostate, in the assay with 786-0 renal, in the assay on IGROV1 ovarian and in the assay on SK-MEL-2 melanoma was above 100 µM in each case.

As for `O=[N+]([O-])c1ccc2c3c1[C@@H]1O[C@@H]1c1cccc(c1-3)[C@@H]1O[C@H]21`, the TGI in the assay on PC-3 prostate is above 28.5 µM; with SNB-75 CNS, 17.5 µM; with U251 CNS, 11.8 µM; in the assay on SNB-19 CNS, above 58.5 µM; with SN12C renal, 15.7 µM; in the assay with HOP-92 NSCLC, 28.6 µM. Moreover, the TGI is above 38.5 µM in the assay with NCI/ADR-RES ovarian; 31.6 µM in the assay on UACC-62 melanoma; 3.2 µM with CAKI-1 renal; above 100 µM in the assay on K-562 leukemia; 8.87 µM with A498 renal; 16.8 µM in the assay on RXF 393 renal. For the same compound, the TGI with MOLT-4 leukemia was above 100 µM; in the assay on HCT-15 colon, 6.05 µM; in the assay with DU-145 prostate, 8.72 µM; in the assay with 786-0 renal it was 7.85 µM; in the assay on IGROV1 ovarian, 2.72 µM; in the assay with SK-MEL-2 melanoma, above 23.7 µM. The GI50 in the assay with SN12C renal is 3.36 µM.

Turning to `Cc1cccc(C)c1NC(=O)C(=O)CC(=O)c1sc(Nc2c(C)cccc2C)nc1C`, the TGI in the assay on PC-3 prostate, with SNB-75 CNS, in the assay with U251 CNS, in the assay with SNB-19 CNS, in the assay on SN12C renal and in the assay on HOP-92 NSCLC was above 100 µM throughout. Further, the TGI with NCI/ADR-RES ovarian, with UACC-62 melanoma, with CAKI-1 renal, in the assay with K-562 leukemia, in the assay with A498 renal and in the assay on RXF 393 renal was above 100 µM throughout. The TGI with MOLT-4 leukemia, in the assay on HCT-15 colon, with DU-145 prostate, with 786-0 renal, in the assay on IGROV1 ovarian and in the assay on SK-MEL-2 melanoma was above 100 µM each time.
